Results taken from the supplement of paper PMC12463676, “Small-molecule dissolution of stress granules by redox modulation benefits ALS models” (Nature Chemical Biology, 2025).

What was measured:
lipoamide = compound: NC(=O)CCCCC1CCSS1 [lipoamide]; assay: thermal stability z-score vs DMSO; higher = more thermally stabilized by treatment; conditions: HeLa, lipoamide concentration 100 µM
Experimental: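 Cellular thermal proteome profiling in HeLa cells. Cells were treated with 100 µM lipoamide for 1 h, with or without 1 mM arsenate for a further 1 h, then heated to ten temperatures (37-66.3 °C), and soluble protein was quantified by TMT mass spectrometry relative to 0.1% DMSO controls. The thermal stability score (sum of log2 fold changes minus the abundance score) was transformed to a z-score; mean of n = 3 experiments.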

potassium arsenate = compound: O=[As]([O-])(O)O.[K+] [potassium arsenate]; assay: as above; conditions: HeLa; arsenate concentration 1 mM
Experimental: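 Cellular thermal proteome profiling in HeLa cells treated with 1 mM arsenate for 1 h (DMSO pretreatment), heated to ten temperatures (37-66.3 °C). Soluble protein was quantified by TMT mass spectrometry relative to DMSO controls; the thermal stability score was transformed to a z-score; mean of n = 3 experiments.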

[1] = arsenate co-treatment: 1 mM arsenate 1 h
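Note: each temperature applied for 3 min, abundance score taken as mean log2 fold change at the two lowest temperatures, z-score obtained by mean subtraction and division by SD.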

UniProt Q96NL8, sequence (Q96NL8 whole entry): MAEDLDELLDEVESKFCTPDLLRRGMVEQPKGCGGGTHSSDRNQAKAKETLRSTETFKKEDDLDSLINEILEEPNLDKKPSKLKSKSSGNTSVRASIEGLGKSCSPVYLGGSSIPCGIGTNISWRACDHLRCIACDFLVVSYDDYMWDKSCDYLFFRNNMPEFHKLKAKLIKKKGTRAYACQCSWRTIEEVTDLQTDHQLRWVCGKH
UniProt Q9NS86, sequence (Q9NS86 whole entry): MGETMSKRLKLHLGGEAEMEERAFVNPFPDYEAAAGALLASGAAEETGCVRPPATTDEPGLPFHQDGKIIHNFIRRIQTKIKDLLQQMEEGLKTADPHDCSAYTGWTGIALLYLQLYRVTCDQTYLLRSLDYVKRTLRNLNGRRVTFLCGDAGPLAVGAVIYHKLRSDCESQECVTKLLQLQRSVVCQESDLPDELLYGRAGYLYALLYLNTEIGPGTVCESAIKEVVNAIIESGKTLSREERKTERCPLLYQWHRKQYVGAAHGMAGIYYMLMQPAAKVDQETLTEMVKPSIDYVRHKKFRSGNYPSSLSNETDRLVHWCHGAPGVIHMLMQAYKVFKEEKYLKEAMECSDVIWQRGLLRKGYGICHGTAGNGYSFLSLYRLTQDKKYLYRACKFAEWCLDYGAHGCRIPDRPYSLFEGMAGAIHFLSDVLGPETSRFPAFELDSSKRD
UniProt Q9C0B5, sequence (Q9C0B5 whole entry): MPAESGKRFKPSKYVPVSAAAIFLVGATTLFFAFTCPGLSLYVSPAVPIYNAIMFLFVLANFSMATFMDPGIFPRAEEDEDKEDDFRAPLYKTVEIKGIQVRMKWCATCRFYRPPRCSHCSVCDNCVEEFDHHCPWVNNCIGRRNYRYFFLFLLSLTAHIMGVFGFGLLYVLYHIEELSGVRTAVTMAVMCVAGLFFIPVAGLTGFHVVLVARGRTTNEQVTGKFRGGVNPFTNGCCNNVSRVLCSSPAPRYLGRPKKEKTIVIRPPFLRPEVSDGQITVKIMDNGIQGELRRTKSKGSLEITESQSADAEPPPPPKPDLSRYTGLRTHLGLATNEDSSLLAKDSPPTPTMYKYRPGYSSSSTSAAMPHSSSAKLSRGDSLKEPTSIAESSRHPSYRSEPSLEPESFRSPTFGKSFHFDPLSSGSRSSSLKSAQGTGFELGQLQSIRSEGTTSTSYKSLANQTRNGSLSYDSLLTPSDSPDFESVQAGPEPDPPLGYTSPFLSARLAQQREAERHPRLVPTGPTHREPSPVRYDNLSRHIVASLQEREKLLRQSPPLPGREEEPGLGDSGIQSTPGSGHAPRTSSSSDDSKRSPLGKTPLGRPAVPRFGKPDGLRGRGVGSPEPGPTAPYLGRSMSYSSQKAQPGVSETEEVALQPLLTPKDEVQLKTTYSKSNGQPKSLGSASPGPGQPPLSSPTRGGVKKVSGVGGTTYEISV
UniProt O43719, sequence (O43719 whole entry): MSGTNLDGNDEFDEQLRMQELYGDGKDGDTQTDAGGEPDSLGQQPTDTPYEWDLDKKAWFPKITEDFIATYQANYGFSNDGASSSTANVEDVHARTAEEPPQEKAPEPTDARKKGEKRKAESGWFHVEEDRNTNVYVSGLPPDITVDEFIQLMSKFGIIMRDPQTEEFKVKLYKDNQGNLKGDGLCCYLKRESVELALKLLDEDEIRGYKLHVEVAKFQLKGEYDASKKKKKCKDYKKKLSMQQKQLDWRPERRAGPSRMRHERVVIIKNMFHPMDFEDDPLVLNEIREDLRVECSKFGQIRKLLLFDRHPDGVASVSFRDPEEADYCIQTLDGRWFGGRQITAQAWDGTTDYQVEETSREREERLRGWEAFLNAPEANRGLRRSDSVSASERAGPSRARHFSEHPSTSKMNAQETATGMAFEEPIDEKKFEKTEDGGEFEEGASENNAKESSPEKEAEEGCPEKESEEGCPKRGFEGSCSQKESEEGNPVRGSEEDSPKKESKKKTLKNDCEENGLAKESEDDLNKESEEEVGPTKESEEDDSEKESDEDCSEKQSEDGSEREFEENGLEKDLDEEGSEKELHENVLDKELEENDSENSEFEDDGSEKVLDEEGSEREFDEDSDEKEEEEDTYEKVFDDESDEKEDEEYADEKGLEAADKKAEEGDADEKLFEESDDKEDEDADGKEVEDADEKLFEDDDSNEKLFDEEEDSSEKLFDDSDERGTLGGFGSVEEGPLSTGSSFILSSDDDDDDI
UniProt P14927, sequence (P14927 whole entry): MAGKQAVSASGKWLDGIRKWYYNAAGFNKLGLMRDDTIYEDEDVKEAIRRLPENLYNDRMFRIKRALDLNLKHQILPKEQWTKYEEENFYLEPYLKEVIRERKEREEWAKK
UniProt Q9Y5B8, sequence (Q9Y5B8 whole entry): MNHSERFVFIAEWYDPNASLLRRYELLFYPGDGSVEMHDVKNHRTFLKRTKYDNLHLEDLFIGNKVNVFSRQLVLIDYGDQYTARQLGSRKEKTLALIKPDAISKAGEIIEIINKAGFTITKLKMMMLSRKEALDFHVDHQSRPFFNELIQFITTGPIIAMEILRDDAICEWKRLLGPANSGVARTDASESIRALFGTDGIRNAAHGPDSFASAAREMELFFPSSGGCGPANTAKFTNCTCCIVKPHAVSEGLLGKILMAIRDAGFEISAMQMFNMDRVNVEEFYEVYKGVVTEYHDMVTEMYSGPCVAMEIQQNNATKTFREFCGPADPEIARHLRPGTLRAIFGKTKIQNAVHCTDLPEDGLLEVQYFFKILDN
UniProt O43752, sequence (O43752 whole entry): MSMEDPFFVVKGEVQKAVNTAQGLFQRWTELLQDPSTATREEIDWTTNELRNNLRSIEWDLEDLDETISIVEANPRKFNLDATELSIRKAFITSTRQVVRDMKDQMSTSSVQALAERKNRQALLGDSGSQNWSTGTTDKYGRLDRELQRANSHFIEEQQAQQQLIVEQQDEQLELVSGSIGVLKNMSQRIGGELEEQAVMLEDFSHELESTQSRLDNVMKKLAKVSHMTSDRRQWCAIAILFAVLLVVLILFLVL
UniProt Q9H6S3, sequence (Q9H6S3 whole entry): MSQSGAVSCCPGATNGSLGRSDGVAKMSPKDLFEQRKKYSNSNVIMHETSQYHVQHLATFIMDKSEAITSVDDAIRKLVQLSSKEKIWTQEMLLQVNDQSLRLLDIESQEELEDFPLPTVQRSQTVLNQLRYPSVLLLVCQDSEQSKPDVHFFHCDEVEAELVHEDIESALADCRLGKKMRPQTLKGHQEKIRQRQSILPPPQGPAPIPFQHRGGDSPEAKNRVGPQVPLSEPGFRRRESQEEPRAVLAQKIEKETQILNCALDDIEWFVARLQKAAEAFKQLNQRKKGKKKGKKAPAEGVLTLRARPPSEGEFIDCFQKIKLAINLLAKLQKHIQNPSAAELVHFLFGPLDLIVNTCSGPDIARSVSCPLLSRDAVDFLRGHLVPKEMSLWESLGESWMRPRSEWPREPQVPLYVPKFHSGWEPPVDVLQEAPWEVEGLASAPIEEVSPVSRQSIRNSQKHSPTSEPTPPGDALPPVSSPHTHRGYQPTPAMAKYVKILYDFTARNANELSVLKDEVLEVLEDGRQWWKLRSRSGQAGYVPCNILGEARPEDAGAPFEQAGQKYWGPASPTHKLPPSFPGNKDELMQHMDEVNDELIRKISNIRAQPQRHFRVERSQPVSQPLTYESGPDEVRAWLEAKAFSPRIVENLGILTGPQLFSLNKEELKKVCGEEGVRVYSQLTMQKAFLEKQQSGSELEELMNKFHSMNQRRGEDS
UniProt P26639, sequence (P26639 whole entry): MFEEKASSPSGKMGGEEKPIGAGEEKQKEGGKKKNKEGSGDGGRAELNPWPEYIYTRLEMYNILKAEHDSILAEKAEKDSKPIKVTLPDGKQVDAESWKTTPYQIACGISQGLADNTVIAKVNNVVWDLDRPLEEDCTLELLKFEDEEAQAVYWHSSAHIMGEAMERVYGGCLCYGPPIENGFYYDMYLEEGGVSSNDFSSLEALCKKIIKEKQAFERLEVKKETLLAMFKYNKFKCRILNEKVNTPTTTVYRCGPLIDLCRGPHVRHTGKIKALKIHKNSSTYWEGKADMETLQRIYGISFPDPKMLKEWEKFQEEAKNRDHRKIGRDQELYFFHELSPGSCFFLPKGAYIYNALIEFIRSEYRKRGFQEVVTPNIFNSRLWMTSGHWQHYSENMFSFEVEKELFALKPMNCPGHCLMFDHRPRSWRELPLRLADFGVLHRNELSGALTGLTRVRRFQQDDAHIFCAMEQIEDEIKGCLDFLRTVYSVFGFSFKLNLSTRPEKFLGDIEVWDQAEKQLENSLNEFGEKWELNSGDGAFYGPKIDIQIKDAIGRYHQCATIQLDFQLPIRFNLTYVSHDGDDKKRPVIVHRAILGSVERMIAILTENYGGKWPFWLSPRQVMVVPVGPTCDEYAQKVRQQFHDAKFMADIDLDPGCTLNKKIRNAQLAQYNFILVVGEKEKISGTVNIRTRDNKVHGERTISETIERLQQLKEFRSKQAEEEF
UniProt Q13825, sequence (Q13825 whole entry): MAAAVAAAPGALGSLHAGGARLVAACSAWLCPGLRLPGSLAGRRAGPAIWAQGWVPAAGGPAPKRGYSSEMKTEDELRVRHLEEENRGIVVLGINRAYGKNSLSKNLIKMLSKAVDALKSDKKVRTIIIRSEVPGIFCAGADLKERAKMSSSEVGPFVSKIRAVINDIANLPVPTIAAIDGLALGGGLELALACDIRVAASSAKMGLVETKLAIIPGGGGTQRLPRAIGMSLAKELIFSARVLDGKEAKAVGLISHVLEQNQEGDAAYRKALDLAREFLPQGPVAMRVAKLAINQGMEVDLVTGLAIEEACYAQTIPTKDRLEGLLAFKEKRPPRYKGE
UniProt Q8WUH1, sequence (Q8WUH1 whole entry): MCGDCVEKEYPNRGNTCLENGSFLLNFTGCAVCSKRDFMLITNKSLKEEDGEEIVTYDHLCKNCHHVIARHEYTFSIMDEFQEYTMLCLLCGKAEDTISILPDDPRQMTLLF
UniProt O15182, sequence (O15182 whole entry): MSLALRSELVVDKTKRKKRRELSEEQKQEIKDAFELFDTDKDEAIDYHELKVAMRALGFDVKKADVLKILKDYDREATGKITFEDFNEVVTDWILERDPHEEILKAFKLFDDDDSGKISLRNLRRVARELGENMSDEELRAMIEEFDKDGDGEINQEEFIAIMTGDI

Target	thermal stability z-score (lipoamide; [1])	thermal stability z-score (lipoamide; arsenate co-treatment: none)	thermal stability z-score (potassium arsenate)
TARS (UniProt P26639)	0.0423	-0.0639	0.853
AUH (UniProt Q13825)	-0.0558	0.0366	0.0655
SMYD2 (UniProt Q9NRG4)	0.863	0.716	1.28
LRRFIP1 (UniProt Q32MZ4)	0.409	0.475	0.228
LRRC8D (UniProt Q7L1W4)	0.38	-0.0451	-0.198
IFIT2 (UniProt P09913)	-0.00168	-0.0988	-0.392
CKAP4 (UniProt Q07065)	-3.96	-2.84	-0.938
AK4 (UniProt P27144)	0.119	0.256	-0.724
C8ORF37 (UniProt Q96NL8)	0.385	0.235	0.161
WDR36 (UniProt Q8NI36)	0.0966	0.698	-0.285
RTTN (UniProt Q86VV8)	-0.0275	-0.0536	-0.117
AAK1 (UniProt Q2M2I8)	0.286	0.0193	0.0056
TOR1AIP2	-3.46	-2.77	-0.134
HTATSF1 (UniProt O43719)	0.386	0.479	-0.763
STX6 (UniProt O43752)	-0.996	-0.712	-0.486
ZDHHC5 (UniProt Q9C0B5)	-0.762	0.0706	-0.438
SEC23IP (UniProt Q9Y6Y8)	-0.784	-1.16	1.54
EPS8L2 (UniProt Q9H6S3)	0.124	0.0219	1.1
RRM1 (UniProt P23921)	0.219	0.204	0.11
EXOSC7 (UniProt Q15024)	0.482	0.0621	-1.11
ACBD3 (UniProt Q9H3P7)	0.447	0.826	0.21
NDUFA9 (UniProt Q16795)	0.188	0.112	0.475
SPECC1L (UniProt Q69YQ0)	1.12	1.43	1.47
CWC15 (UniProt Q9P013)	1.65	0.526	-0.193
RCN1 (UniProt Q15293)	-1.02	-0.814	0.52
LANCL2 (UniProt Q9NS86)	-1.13	-0.454	-0.393
ACTR3 (UniProt P61158)	-0.149	0.128	-0.483
NME7 (UniProt Q9Y5B8)	0.000387	0.0484	-0.13

Target	thermal stability z-score (lipoamide; [1])	thermal stability z-score (lipoamide; arsenate co-treatment: none)	thermal stability z-score (potassium arsenate)
CETN3 (UniProt O15182)	1.25	1.49	1.71
LRRC41 (UniProt Q15345)	-0.134	-0.26	-0.546
CASKIN2 (UniProt Q8WXE0)	-0.798	0.441	0.938
TIMM17A (UniProt Q99595)	0.133	-0.417	0.164
RPL35A (UniProt P18077)	0.893	0.484	-0.477
ZMYM3 (UniProt Q14202)	0.69	0.308	-1.2
ARMC8 (UniProt Q8IUR7)	-0.0708	-0.238	-0.668
MRI1 (UniProt Q9BV20)	0.156	0.0639	-0.37
MPST (UniProt P25325)	0.689	0.913	-0.099
NUP35 (UniProt Q8NFH5)	0.043	-0.376	1.25
UQCRB (UniProt P14927)	0.896	0.847	0.208
CNTLN (UniProt Q9NXG0)	-0.163	-0.342	-0.0711
PHLDB2 (UniProt Q86SQ0)	-1.07	-0.89	-0.277
STRN4 (UniProt Q9NRL3)	-0.136	0.198	0.937
EEF2KMT (UniProt Q96G04)	0.0521	0.046	0.0729
KIF4A (UniProt O95239)	-0.0934	0.023	-0.219
DOPEY2 (UniProt Q9Y3R5)	1.01	0.402	-0.9
C19ORF70|MIC13	0.265	0.131	0.22
CHURC1 (UniProt Q8WUH1)	-0.539	-0.988	-0.122
MTCH1 (UniProt Q9NZJ7)	-0.143	-0.0871	0.404
SUB1 (UniProt P53999)	0.206	0.0783	0.0838
DBN1 (UniProt Q16643)	0.625	-0.407	-0.684
WDR1 (UniProt O75083)	0.454	0.0649	-0.59
S100A6 (UniProt P06703)	1.78	0.967	1.15
CHD3 (UniProt Q12873)	0.00382	-0.131	-0.306
ANO6 (UniProt Q4KMQ2)	-0.102	-0.0242	-0.286
SLU7 (UniProt O95391)	-0.353	-0.364	-0.0775
